In PubChem BioAssay (NCI):
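Interpolation was linear, between the two tested concentrations surrounding the appropriate level; five concentrations were tested over 48 hours in 96-well plates. Abbreviation: GI50, concentration required for 50% inhibition of growth. TGI marks complete inhibition of growth.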

Experiments:
Assay in all cases: growth of human tumour cells (NCI), 48 h
[1] = system: ACHN renal
[2] = system: SK-MEL-5 melanoma
[3] = system: HCC-2998 colon
[4] = system: T-47D breast
[5] = system: KM12 colon
[6] = system: OVCAR-4 ovarian
[7] = system: CCRF-CEM leukemia
[8] = system: SW-620 colon
[9] = system: MDA-MB-231 breast
[10] = system: SF-539 CNS
[11] = system: HCT-116 colon
[12] = system: DU-145 prostate
[13] = system: NCI/ADR-RES ovarian
[14] = system: IGROV1 ovarian
[15] = system: PC-3 prostate
[16] = system: NCI-H226 lung
[17] = system: MDA-MB-435
[18] = system: CAKI-1 renal
[19] = system: UACC-62 melanoma
[20] = system: MCF7 breast
[21] = system: SR leukemia
[22] = system: HOP-92 NSCLC
[23] = system: A549 NSCLC
[24] = system: BT-549 breast
[25] = system: OVCAR-5 ovarian
[26] = system: RPMI-8226 leukemia
[27] = system: SF-268 CNS
[28] = system: NCI-H522 lung
[29] = system: COLO 205 colon
[30] = system: OVCAR-8 ovarian
[31] = system: SN12C renal
[32] = system: K-562 leukemia
[33] = system: 786-0 renal
[34] = system: NCI-H460 lung
[35] = system: UACC-257 melanoma
[36] = system: A498 renal
[37] = system: SNB-19 CNS
[38] = system: NCI-H23 lung
[39] = system: SK-MEL-28 melanoma
[40] = system: MOLT-4 leukemia
[41] = system: U251 CNS
[42] = system: TK-10 renal
[43] = system: UO-31 renal
[44] = system: M14 melanoma
[45] = system: LOX IMVI melanoma
[46] = system: HT29 colon
[47] = system: HS 578T breast
[48] = system: HCT-15 colon
[49] = system: SNB-75 CNS
[50] = system: SK-OV-3 ovarian
[51] = system: SF-295 CNS
[52] = system: MALME-3M melanoma
[53] = system: RXF 393 renal
[54] = system: EKVX NSCLC
[55] = system: HL-60(TB) leukemia
[56] = system: HOP-62 NSCLC
[57] = system: SK-MEL-2 melanoma

In the case of `CCN(CC)CCN1C(=O)c2c(c3c4cc(Br)ccc4[nH]c3c3ccc4ccccc4c23)C1=O`, the GI50 [1] is reported as 1.14 µM, the TGI [1] is reported as 2.36 µM and the GI50 [2] is reported as 1.75 µM. For the same molecule, the TGI [2] was 3.18 µM, the GI50 [3] was 1.66 µM and the TGI [3] was 3.43 µM. The GI50 [4] was 0.7 µM, the TGI [4] was 2.56 µM and the GI50 [5] was 1.71 µM. The TGI [5] was 3.5 µM, the GI50 [6] was 1.68 µM and the TGI [6] was 3.22 µM. For the same molecule, the GI50 [7] was 0.186 µM, the TGI [7] was 1.75 µM and the GI50 [8] was 0.553 µM. It also gave a TGI [8] of 2.16 µM, a GI50 [9] of 1.41 µM and a TGI [9] of 3 µM. It also gave a GI50 [10] of 1.56 µM, a TGI [10] of 3 µM and a GI50 [11] of 1.25 µM. For the same molecule, the TGI [11] was 2.5 µM, the GI50 [12] was 1.22 µM and the TGI [12] was 2.56 µM. For the same molecule, the GI50 [13] was 1.43 µM, the TGI [13] was 4.19 µM and the GI50 [14] was 1.27 µM. It also gave a TGI [14] of 2.82 µM, a GI50 [15] of 1.31 µM and a TGI [15] of 2.65 µM. The GI50 [16] was 5.64 µM, the TGI [16] was 33.7 µM and the GI50 [17] was 1.63 µM. It also gave a TGI [17] of 3.08 µM, a GI50 [18] of 1.25 µM and a TGI [18] of 2.63 µM. For the same molecule, the GI50 [19] was 1.64 µM, the TGI [19] was 3.5 µM and the GI50 [20] was 0.0439 µM. It also gave a TGI [20] of 1.64 µM, a GI50 [21] of 0.102 µM and a TGI [21] of 0.52 µM. The GI50 [22] was 1.32 µM, the TGI [22] was 2.71 µM and the GI50 [23] was 1.43 µM. It also gave a TGI [23] of 2.79 µM, a GI50 [24] of 2.22 µM and a TGI [24] of 4.07 µM. The GI50 [25] was 1.76 µM, the TGI [25] was 3.23 µM and the GI50 [26] was 1.21 µM. The TGI [26] was 3.23 µM, the GI50 [27] was 1.52 µM and the TGI [27] was 3.53 µM. It also gave a GI50 [28] of 1.29 µM, a TGI [28] of 2.67 µM and a GI50 [29] of 1.43 µM. It also gave a TGI [29] of 3.13 µM, a GI50 [30] of 1.27 µM and a TGI [30] of 2.66 µM. For the same molecule, the GI50 [31] was 1.58 µM, the TGI [31] was 3.14 µM and the GI50 [32] was 0.273 µM. The TGI [32] was 0.905 µM, the GI50 [33] was 1.71 µM and the TGI [33] was 3.11 µM. The GI50 [34] was 0.476 µM, the TGI [34] was 1.85 µM and the GI50 [35] was 1.64 µM. It also gave a TGI [35] of 3.01 µM, a GI50 [36] of 1.64 µM and a TGI [36] of 3.29 µM. It also gave a GI50 [37] of 1.43 µM, a TGI [37] of 2.84 µM and a GI50 [38] of 1.5 µM. The TGI [38] was 3.32 µM, the GI50 [39] was 1.73 µM and the TGI [39] was 3.19 µM. For the same molecule, the GI50 [40] was 0.215 µM, the TGI [40] was 1.92 µM and the GI50 [41] was 1.02 µM. It also gave a TGI [41] of 2.21 µM, a GI50 [42] of 2.11 µM and a TGI [42] of 3.56 µM. The GI50 [43] was 1.32 µM, the TGI [43] was 2.62 µM and the GI50 [44] was 1.57 µM. The TGI [44] was 2.96 µM, the GI50 [45] was 1.25 µM and the TGI [45] was 3.04 µM. It also gave a GI50 [46] of 1.35 µM, a TGI [46] of 2.8 µM and a GI50 [47] of 1.94 µM. It also gave a TGI [47] of 5.02 µM, a GI50 [48] of 1.4 µM and a TGI [48] of 3.08 µM. It also gave a GI50 [49] of 1.45 µM, a TGI [49] of 2.84 µM and a GI50 [50] of 1.5 µM. It also gave a TGI [50] of 2.9 µM, a GI50 [51] of 1.61 µM and a TGI [51] of 3.09 µM. The GI50 [52] was 1.56 µM, the TGI [52] was 3.06 µM and the GI50 [53] was 1.58 µM. It also gave a TGI [53] of 3 µM, a GI50 [54] of 1.38 µM and a TGI [54] of 2.92 µM. For the same molecule, the GI50 [55] was 1.58 µM, the TGI [55] was 3.98 µM and the GI50 [56] was 0.922 µM. It also gave a TGI [56] of 2.25 µM.
For `COc1cccc(N2CCN(C3=C(Cl)C(=O)c4ncccc4C3=O)CC2)c1`, the GI50 [1] was 1.76 µM, the TGI [1] was 3.19 µM and the GI50 [2] was 11.5 µM. It also gave a TGI [2] of 23.8 µM, a GI50 [3] of 12.1 µM and a TGI [3] of 25.5 µM. It also gave a GI50 [5] of 20.3 µM, a TGI [5] of 41.7 µM and a GI50 [6] of 1.73 µM. It also gave a TGI [6] of 3.26 µM, a GI50 [8] of 1.64 µM and a TGI [8] of 3.32 µM. The GI50 [9] was 1.68 µM, the TGI [9] was 3.2 µM and the GI50 [10] was 11.4 µM. The TGI [10] was 23.6 µM, the GI50 [11] was 1.73 µM and the TGI [11] was 3.18 µM. It also gave a GI50 [12] of 11.1 µM, a TGI [12] of 23.1 µM and a GI50 [13] of 3.36 µM. It also gave a TGI [13] of 15.5 µM, a GI50 [14] of 2.93 µM and a TGI [14] of 9.52 µM. For the same molecule, the GI50 [15] was 8.55 µM, the TGI [15] was 22.3 µM and the GI50 [16] was 14 µM. The TGI [16] was 31.9 µM, the GI50 [17] was 1.79 µM and the TGI [17] was 3.34 µM. The GI50 [18] was 2.64 µM, the TGI [18] was 8.15 µM and the GI50 [19] was 3.48 µM. The TGI [19] was 12.3 µM, the GI50 [20] was 1.98 µM and the TGI [20] was 5.86 µM. It also gave a GI50 [21] of 1.8 µM, a TGI [21] of 5.38 µM and a GI50 [22] of 1.63 µM. The TGI [22] was 3.07 µM, the GI50 [23] was 15.5 µM and the TGI [23] was 33 µM. For the same molecule, the GI50 [24] was 6.75 µM, the TGI [24] was 18.3 µM and the GI50 [25] was 15.4 µM. It also gave a TGI [25] of 30.3 µM, a GI50 [26] of 2.27 µM and a TGI [26] of 5.92 µM. The GI50 [27] was 13.1 µM, the TGI [27] was 29.6 µM and the GI50 [28] was 1.73 µM. The TGI [28] was 3.39 µM, the GI50 [29] was 1.87 µM and the TGI [29] was 4.01 µM. It also gave a GI50 [30] of 2 µM, a TGI [30] of 5.01 µM and a GI50 [31] of 5.19 µM. The TGI [31] was 20.2 µM, the GI50 [32] was 2.3 µM and the TGI [32] was 6.28 µM. The GI50 [33] was 5.02 µM, the TGI [33] was 16.3 µM and the GI50 [34] was 7.26 µM. The TGI [34] was 26.7 µM, the GI50 [35] was 2.12 µM and the TGI [35] was 5.23 µM. It also gave a GI50 [36] of 13.5 µM, a TGI [36] of 26.4 µM and a GI50 [37] of 16.2 µM. The TGI [37] was 32.9 µM, the GI50 [39] was 3.3 µM and the TGI [39] was 9.58 µM. The GI50 [41] was 5.46 µM, the TGI [41] was 19.5 µM and the GI50 [42] was 4.18 µM. For the same molecule, the TGI [42] was 13.2 µM, the GI50 [43] was 1.64 µM and the TGI [43] was 3.4 µM. It also gave a GI50 [44] of 3.27 µM, a TGI [44] of 13 µM and a GI50 [45] of 1.62 µM. For the same molecule, the TGI [45] was 3.12 µM, the GI50 [46] was 12.2 µM and the TGI [46] was 28.6 µM. For the same molecule, the GI50 [47] was 10 µM, the TGI [47] was 51.5 µM and the GI50 [48] was 2.05 µM. It also gave a TGI [48] of 5.6 µM, a GI50 [57] of 6.25 µM and a TGI [57] of 19.3 µM. For the same molecule, the GI50 [49] was 11.8 µM, the TGI [49] was 24.7 µM and the GI50 [50] was 15.4 µM. The TGI [50] was 46.2 µM, the GI50 [51] was 12.5 µM and the TGI [51] was 26.2 µM. The GI50 [52] was 1.84 µM, the TGI [52] was 4.06 µM and the GI50 [53] was 1.77 µM. The TGI [53] was 3.25 µM, the GI50 [54] was 2.05 µM and the TGI [54] was 4.42 µM. It also gave a GI50 [55] of 1.75 µM, a TGI [55] of 4.47 µM and a GI50 [56] of 18.5 µM. It also gave a TGI [56] of 33.2 µM.
